Legend:
BALB/c mice = experiment: Toxicity studies in mice; type: in vivo
Description: Toxicity Studies in Mice. […] Female BALB/c mice were used and monitored daily for lethargy, cleanliness and morbidity. At the time of death, necropsies were performed and the toxic effects of WHI-P131 administration were assessed. For histopathologic studies, tissues were fixed in 10% neutral buffered formalin, dehydrated, and embedded in paraffin by routine methods. Glass slides with affixed 6 micron tissue sections were prepared and stained with Hemotoxylin and Eosin (H&E). Female BALB/c mice were administered an i.p. bolus injection of WHI-P131 in 0.2 ml PBS supplemented with 10% DMSO, or 0.2 ml PBS supplemented with 10% DMSO alone (control mice). No sedation or anesthesia was used throughout the treatment period. Mice were monitored daily for mortality for determination of the day 30 LD50 values. Mice surviving until the end of the 30 days monitoring were sacrificed and the tissues were immediately collected from randomly selected mice, and preserved in 10% neutral buffered formalin. Standard tissues collected for histologic evaluation included: bone, bone marrow, brain, cecum, heart, kidney, large intestine, liver, lung, lymph node, ovary, pancreas, skeletal muscle, skin, small intestine, spleen, stomach, thymus, thyroid gland, urinary bladder, and uterus (as available).

SYK = biological target: T1, SYK (Homo sapiens, UniProt P43405); experiment: Immune complex kinase assay, SYK from Sf21 cells; type: biochemical; conditions: concentrations as high as 350 μM
T1 construct: made in house; host or cells: Sf21 insect cells, baculovirus
Source text: (§1) Immune Complex Kinase Assays.

recombinant JAK1 = biological target: T2, recombinant JAK1 (Homo sapiens, UniProt P23458); experiment: Immune complex kinase assay, recombinant JAK1; type: biochemical; conditions: FIG. 6C & D
T2 construct: made in house; host or cells: Sf21 insect cells, baculovirus
Source text: as §1

LYN = biological target: T3, LYN (Homo sapiens, UniProt P07948); experiment: Immune complex kinase assay, LYN from NALM-6 cells; type: biochemical; conditions: concentrations as high as 350 μM
T3 construct: LYN was immunoprecipitated from whole cell lysates of NALM-6 human leukemia cells; endogenous in cells; host or cells: NALM-6 human B-lineage ALL cells

human JAK3 [1] = biological target: T4, human JAK3 (Homo sapiens, UniProt P52333); experiment: JAK3 kinase inhibition (Table 1 IC50, immune complex kinase assay); type: biochemical; conditions: Table 1; measured inhibition values for JAK3 kinase
T4 construct: KL-2 EBV-transformed human lymphoblastoid B cells (native JAK3 kinase assays); endogenous in cells; host or cells: KL-2 EBV-transformed human lymphoblastoid B cell line
T4 sequence (P52333 1-1124): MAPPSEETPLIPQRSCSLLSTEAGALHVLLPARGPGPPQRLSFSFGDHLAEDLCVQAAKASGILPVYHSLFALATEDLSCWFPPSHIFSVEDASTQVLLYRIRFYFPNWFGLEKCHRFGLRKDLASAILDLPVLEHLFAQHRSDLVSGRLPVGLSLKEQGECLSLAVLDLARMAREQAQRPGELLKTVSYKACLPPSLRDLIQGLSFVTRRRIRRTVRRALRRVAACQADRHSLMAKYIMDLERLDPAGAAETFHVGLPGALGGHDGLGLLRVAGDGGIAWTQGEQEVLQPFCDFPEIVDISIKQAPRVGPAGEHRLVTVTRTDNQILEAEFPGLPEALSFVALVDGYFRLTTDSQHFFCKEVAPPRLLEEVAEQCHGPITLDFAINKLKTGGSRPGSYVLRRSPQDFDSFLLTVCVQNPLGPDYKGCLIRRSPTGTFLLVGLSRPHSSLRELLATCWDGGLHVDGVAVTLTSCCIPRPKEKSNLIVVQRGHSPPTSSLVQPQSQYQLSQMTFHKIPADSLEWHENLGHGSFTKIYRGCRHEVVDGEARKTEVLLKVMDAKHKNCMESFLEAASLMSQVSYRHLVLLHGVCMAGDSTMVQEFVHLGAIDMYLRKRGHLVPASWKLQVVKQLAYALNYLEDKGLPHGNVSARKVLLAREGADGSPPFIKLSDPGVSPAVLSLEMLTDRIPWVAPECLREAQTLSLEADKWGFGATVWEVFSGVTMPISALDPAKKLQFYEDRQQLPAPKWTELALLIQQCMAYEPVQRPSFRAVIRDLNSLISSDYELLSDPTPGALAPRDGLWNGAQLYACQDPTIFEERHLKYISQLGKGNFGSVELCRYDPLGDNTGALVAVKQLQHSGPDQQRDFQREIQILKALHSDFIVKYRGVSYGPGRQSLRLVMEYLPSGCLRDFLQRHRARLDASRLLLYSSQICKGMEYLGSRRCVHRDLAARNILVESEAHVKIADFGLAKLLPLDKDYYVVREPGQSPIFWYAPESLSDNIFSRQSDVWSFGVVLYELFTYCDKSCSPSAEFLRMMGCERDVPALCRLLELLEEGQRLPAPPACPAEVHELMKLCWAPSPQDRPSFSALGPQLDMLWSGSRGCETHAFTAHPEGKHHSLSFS
Description: as §1
(§2) KL-2 EBV-transformed human lymphoblastoid B cells (native JAK3 kinase assays) or insect ovary cells (recombinant JAK3 kinase assays) were lysed with NP-40 lysis buffer (50 mM Tris, pH 8, 150 mM NaCl, 5 mM EDTA, 1% NP-40, 100 μM sodium orthovanadate, 100 μM sodium molybdate, 8 μg/ml aprotinin, 5 μg/ml leupeptin, and 500 μM PMSF) and centrifuged 10 minutes at 13000×g to remove insoluble material. Samples were immunoprecipitated with antisera prepared against JAK3. The antisera were diluted and immune complexes collected by incubation with 15 μl protein A Sepharose. After 4 washes with NP-40 lysis buffer, the protein A Sepharose beads were washed once in kinase buffer (20 mM MOPS, pH 7.0, 10 mM MgCl2) and resuspended in the same buffer. Reactions were initiated by the addition of 25 μCi γ[^32P] ATP (5000 Ci/mMole) and unlabeled ATP to a final concentration of 5 μM. Reactions were terminated by boiling for 4 min in SDS sample buffer. Samples were run on 9.5% SDS polyacrylamide gels and labeled proteins will be detected by autoradiography. Following electrophoresis, kinase gels were dried onto Whatman 3M filter paper and subjected to phosphoimaging on a Molecular Imager (Bio-Rad, Hercules, Calif.) as well as autoradiography on film. For each drug concentration, a kinase activity index (KA) was determined by comparing the kinase activity in phosphorimager units (PIU) to that of the baseline sample. In some experiments, cold kinase assays were performed, as described (Uckun et. al., 1998, Clin. Cancer Res., 4:901-912).

human JAK3 [2] = biological target: T4, human JAK3; experiment: Immune complex kinase assay, JAK3 immunoprecipitated from KL2 EBV-transformed lymphoblastoid B cell line; type: biochemical; conditions: JAK3 immunoprecipitated from KL2 cells
Description: as §2, with “Following electrophoresis, kinase gels were dried onto Whatman 3M filter paper and subjected to phosphoimaging on a Molecular Imager (Bio-Rad, Hercules, Calif.) as well as autoradiography on film.” left out, “In some experiments, cold kinase assays were performed, as described (Uckun et. al., 1998, Clin. Cancer Res., 4:901-912).” left out

T2 sequence (P23458 whole entry): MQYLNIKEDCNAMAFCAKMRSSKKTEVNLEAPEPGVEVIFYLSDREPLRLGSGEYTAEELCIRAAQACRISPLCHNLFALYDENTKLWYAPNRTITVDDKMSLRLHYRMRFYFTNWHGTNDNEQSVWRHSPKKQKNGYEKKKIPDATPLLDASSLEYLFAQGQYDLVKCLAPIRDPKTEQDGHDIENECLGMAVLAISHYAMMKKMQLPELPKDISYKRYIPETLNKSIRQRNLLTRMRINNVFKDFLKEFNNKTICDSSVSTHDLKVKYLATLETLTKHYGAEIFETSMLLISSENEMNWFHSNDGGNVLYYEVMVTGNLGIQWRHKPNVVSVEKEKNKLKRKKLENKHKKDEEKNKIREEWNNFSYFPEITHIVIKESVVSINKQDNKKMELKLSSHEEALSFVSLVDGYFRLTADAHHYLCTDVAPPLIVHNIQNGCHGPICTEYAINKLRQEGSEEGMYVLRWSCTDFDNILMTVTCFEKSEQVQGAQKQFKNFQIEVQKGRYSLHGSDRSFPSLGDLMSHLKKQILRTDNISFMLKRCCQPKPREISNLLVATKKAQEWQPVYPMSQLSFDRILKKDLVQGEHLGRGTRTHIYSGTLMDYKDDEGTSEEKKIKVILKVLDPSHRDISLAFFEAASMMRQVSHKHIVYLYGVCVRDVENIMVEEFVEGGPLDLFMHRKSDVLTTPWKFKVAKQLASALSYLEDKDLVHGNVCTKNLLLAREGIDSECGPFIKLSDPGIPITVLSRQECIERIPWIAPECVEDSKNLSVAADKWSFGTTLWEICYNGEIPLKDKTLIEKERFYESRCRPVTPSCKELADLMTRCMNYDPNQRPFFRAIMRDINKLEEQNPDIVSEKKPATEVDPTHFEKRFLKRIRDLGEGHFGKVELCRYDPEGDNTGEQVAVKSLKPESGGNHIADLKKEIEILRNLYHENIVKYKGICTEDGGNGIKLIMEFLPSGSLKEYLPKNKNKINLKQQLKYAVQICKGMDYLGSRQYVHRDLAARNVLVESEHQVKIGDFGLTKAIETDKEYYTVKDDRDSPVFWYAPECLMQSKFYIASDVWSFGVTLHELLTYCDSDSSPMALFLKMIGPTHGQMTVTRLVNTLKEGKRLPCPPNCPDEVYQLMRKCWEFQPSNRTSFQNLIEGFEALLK
T3 sequence (P07948 whole entry): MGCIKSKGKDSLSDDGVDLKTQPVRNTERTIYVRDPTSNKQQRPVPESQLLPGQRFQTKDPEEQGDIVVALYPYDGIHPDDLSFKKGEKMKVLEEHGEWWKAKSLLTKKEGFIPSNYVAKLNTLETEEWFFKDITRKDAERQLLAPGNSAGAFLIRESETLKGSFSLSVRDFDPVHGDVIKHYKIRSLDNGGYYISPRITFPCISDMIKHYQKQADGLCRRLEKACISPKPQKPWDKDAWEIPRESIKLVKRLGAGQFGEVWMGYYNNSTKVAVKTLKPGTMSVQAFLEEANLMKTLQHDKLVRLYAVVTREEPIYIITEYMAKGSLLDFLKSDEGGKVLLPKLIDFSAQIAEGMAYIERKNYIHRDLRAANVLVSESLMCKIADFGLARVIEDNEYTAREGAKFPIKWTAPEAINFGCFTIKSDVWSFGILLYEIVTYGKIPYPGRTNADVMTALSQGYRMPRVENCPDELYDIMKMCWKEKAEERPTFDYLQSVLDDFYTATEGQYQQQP

COc1cc2ncnc(Nc3ccc(O)cc3)c2cc1OC [WHI-P131, 4-(4′-Hydroxylphenyl)-amino-6,7-dimethoxyquinazoline]
toxicity (BALB/c mice; i.p. single bolus 0.5 mg/kg to 250 mg/kg, 30 day observation): not toxic
maximum tolerated dose (MTD) (BALB/c mice; i.p. single bolus, mice): > 250 mg/kg
histopathologic lesions in organs (BALB/c mice; mice killed at 30 days): No histopathologic lesions
hematologic side effects (neutropenia, lymphopenia, anemia) (BALB/c mice; tested dose levels, mice): no hematologic side effects
effect on enzymatic activity of SYK (SYK): did not affect
inhibitory activity against recombinant JAK1 (recombinant JAK1): did not exhibit any detectable inhibitory activity
effect on enzymatic activity of LYN (LYN): did not affect
IC50 (human JAK3 [1]): 78 µM
IC50 (human JAK3 [2]): 9.1 µM
